“Also recorded” adds a separate entry of the source.
How the values were obtained:
nitrotyrosine = assay: Nitrotyrosine immunostaining in paw/joint of collagen-induced arthritis rats; assay type: in vivo, Lewis rats; details: day 35; low doses alone: DEX 0.01 mg/kg or M40403 2 mg/kg
Description: (§1) Immunohistochemical Localization of Nitrotyrosine, PARS, COX-2 and iNOS At day 35, the joints organs were then trimmed, placed in decalcifying solution for 24 hours and 8 μm sections were prepared from paraffin embedded tissues. After deparaffinization, endogenous peroxidase was quenched with 0.3% H2O2 in 60% methanol for 30 minutes. The sections were permeabilized with 0.1% Triton X-100 in PBS for 20 minutes. Non-specific adsorption was minimized by incubating the section in 2% normal goat serum in phosphate buffered saline for 20 minutes. Endogenous biotin or avidin binding sites were blocked by sequential incubation for 15 minutes with avidin and biotin. Sections were incubated overnight with 1) anti-rabbit polyclonal antibody directed at iNOS (1:1000 in PBS, v/v) (DBA, Milan, Italy) or 2) with anti-COX-2 goat policlonal antibody (1:500 in PBS, v/v) or 3) with anti-nitrotyrosine rabbit policlonal antibody (1:1000 in PBS, v/v) or 4) with anti-poly (ADP-Ribose) goat policlonal antibody rat (1:500 in PBS, v/v). Controls included buffer alone or non-specific purified rabbit IgG. Specific labelling was detected with a biotin-conjugated goat anti-rabbit IgG (for nitrotyrosine and iNOS) or with a biotin-conjugated […] and avidin-biotin peroxidase complex. […]

PARS = PARS immunostaining in paw/joint of collagen-induced arthritis rats; assay type: in vivo, Lewis rats; details: day 35; low doses alone: DEX 0.01 mg/kg or M40403 2 mg/kg
Description: as §1

iNOS = iNOS immunostaining in paw/joint of collagen-induced arthritis rats; assay type: in vivo, Lewis rats; details: day 35; low doses alone: DEX 0.01 mg/kg or M40403 2 mg/kg
Description: as §1

COX-2 = COX-2 immunostaining in paw/joint of collagen-induced arthritis rats; assay type: in vivo, Lewis rats; details: day 35; low doses alone: DEX 0.01 mg/kg or M40403 2 mg/kg
Description: as §1

[1] = Body weight gain in collagen-induced arthritis rats; assay type: in vivo, Lewis rats; details: day 25 to 35; low doses alone: DEX 0.01 mg/kg or M40403 2 mg/kg
Description: Animals were randomly divided into six groups (n=10 for each group) as follows: […]

[2] = relative potency; cited from earlier work
[3] = relative potency; cited from earlier work; remark: listed apart in the source
[4] = cited from earlier work
[5] = system: carrageenan-induced paw edema; assay: Carrageenan-induced paw edema in rats; assay type: in vivo, sprague dawley rats
Description: Dexamethasone was given by lavage one hour before carrageenan. […] (1 mg/kg) was given intravenously 15 minutes before carrageenan. Male sprague dawley rats weighing between 200 and 210 g were used. Paw edema was monitored for 6 hours. Results express delta change from basal. Each number is the mean+s.e.m. for n=4 rats per group.

[Cl-].[Cl-].[Mn+2].c1cc2nc(c1)CN[C@@H]1CCCC[C@H]1NCCN[C@@H]1CCCC[C@H]1NC2 [M40403]
Nitrotyrosine immunostaining in joint (nitrotyrosine): No significant protective effect
PARS immunostaining in joint (PARS): No significant protective effect
iNOS immunostaining in joint (iNOS): had no effect on iNOS or COX-2 staining
COX-2 immunostaining in joint (COX-2): had no effect on iNOS or COX-2 staining
Body weight gain [1]: gained weight in a manner that was similar to CIA rats; also recorded: gained significantly less weight than the normal rats

C[C@]12C=CC(=O)C=C1CC[C@@H]1[C@@H]2[C@@H](O)C[C@@]2(C)[C@H]1CC[C@]2(O)C(=O)CO [Prednisolone]
Anti-inflammatory Potency [2]: 4
Na+-retaining Potency [3]: 0.8
Duration (T½, Hours) [4]: 12 to 36 h

C[C@]12CCC(=O)C=C1CC[C@@H]1[C@@H]2C(=O)C[C@@]2(C)[C@H]1CC[C@]2(O)C(=O)CO [Cortisone]
Anti-inflammatory Potency [2]: 0.8
Na+-retaining Potency [3]: 0.8

C[C@]12C=CC(=O)C=C1CC[C@H]1[C@@H]3C[C@@H](O)[C@](O)(C(=O)CO)[C@@]3(C)C[C@H](O)[C@@]12F [Triamcinolone]
Anti-inflammatory Potency [2]: 5
Na+-retaining Potency [3]: 0
Duration (T½, Hours) [4]: 12 to 36 h

C[C@]12CCC(=O)C=C1CC[C@H]1[C@@H]3CC[C@](O)(C(=O)CO)[C@@]3(C)C[C@H](O)[C@@]12F [Fludrocortisone]
Duration (T½, Hours) [4]: 8 to 12 h

C[C@H]1C[C@@H]2[C@H]([C@@H](O)C[C@@]3(C)[C@H]2CC[C@]3(O)C(=O)CO)[C@@]2(C)C=CC(=O)C=C12 [6a-Methyl-prednisolone]
Anti-inflammatory Potency [2]: 5
Na+-retaining Potency [3]: 0.5
Duration (T½, Hours) [4]: 12 to 36 h

5,10,15,20-tetrakis (2,4,6-trimethyl-3,5-disulfonatophenyl)-porphyrinato iron (III) [FeTMPS]
Paw edema, delta change from basal ([5]; FeTMPS 1 mpk intravenously 15 minutes before carrageenan, 0 h post carrageenan): 0
Paw edema, delta change from basal ([5]; FeTMPS 1 mpk, 1 h post carrageenan): 0.6 ± 0.02
Paw edema, delta change from basal ([5]; FeTMPS 1 mpk, 2 h post carrageenan): 0.9 ± 0.05
Paw edema, delta change from basal ([5]; FeTMPS 1 mpk, 3 h post carrageenan): 1.1 ± 0.01
Paw edema, delta change from basal ([5]; FeTMPS 1 mpk, 4 h post carrageenan): 1.2 ± 0.02
Paw edema, delta change from basal ([5]; FeTMPS 1 mpk, 5 h post carrageenan): 1 ± 0.03
Paw edema, delta change from basal ([5]; FeTMPS 1 mpk, 6 h post carrageenan): 1.3 ± 0.02

C[C@]12CCC(=O)C=C1CC[C@@H]1[C@@H]2[C@@H](O)C[C@@]2(C)[C@H]1CC[C@]2(O)C(=O)CO [Cortisol]
Anti-inflammatory Potency [2]: 1
Na+-retaining Potency [3]: 1
Duration (T½, Hours) [4]: 8 to 12 h

C[C@]12C=CC(=O)C=C1CC[C@@H]1[C@@H]2C(=O)C[C@@]2(C)[C@H]1CC[C@]2(O)C(=O)CO [Prednisone]
Duration (T½, Hours) [4]: 12 to 36 h
